# ChEMBL document CHEMBL1201862, “PubChem BioAssay data set” (2004)
# Activity calls are given as the source filed them.
# Experiments:
# [1] = target: T1, Aryl hydrocarbon receptor (Homo sapiens, UniProt P35869); details: Potency;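 also: confirmatory quantitative high-throughput screen measuring activation of the AhR signaling pathway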
# T1 sequence (P35869 whole entry): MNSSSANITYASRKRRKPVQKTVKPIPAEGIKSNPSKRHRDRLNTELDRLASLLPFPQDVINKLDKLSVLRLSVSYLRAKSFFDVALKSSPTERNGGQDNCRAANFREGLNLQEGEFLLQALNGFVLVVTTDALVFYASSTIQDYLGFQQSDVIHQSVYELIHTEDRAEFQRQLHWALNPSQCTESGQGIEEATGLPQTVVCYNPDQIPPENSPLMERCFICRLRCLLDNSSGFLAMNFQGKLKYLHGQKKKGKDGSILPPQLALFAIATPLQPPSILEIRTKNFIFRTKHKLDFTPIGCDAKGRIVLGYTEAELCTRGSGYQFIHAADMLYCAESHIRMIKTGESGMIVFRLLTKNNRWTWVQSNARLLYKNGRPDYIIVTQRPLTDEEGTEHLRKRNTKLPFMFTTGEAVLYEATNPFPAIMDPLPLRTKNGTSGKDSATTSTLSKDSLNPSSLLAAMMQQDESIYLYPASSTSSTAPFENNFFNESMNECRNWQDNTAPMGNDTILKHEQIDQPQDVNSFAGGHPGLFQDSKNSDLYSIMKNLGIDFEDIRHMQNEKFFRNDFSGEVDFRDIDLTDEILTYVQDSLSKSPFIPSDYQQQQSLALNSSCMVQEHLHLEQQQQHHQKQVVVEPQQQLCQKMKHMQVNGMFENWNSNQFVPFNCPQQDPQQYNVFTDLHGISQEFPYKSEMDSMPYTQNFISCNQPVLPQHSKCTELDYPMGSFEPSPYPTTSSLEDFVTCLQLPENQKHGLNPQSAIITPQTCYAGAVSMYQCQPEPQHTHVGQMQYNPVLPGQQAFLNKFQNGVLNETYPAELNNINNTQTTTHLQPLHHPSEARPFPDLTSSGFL
# [2] = target: Adenosylmethionine-8-amino-7-oxononanoate aminotransferase (Mycobacterium tuberculosis, UniProt P9WQ81); assay: Mycobacterium tuberculosis BioA enzyme inhibitor Measured in Biochemical System Using Plate Reader - 2163-02_Inhibitor_Dose_CherryPick_Activity.; assay type: functional, Mycobacterium tuberculosis UT205
# Adenosylmethionine-8-amino-7-oxononanoate aminotransferase, sequence (P9WQ81 whole entry): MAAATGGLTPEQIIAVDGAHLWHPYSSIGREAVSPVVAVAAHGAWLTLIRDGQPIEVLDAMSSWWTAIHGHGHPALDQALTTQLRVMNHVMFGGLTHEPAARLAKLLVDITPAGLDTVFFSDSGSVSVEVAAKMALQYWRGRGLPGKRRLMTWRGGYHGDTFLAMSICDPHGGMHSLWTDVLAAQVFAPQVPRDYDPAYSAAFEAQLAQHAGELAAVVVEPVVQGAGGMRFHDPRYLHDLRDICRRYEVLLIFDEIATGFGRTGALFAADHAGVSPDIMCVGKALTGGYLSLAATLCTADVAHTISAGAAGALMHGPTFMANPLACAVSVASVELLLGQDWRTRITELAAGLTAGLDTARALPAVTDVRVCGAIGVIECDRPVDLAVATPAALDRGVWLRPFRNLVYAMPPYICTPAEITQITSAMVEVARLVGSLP
# [3] = target: T2, Nuclear receptor subfamily 0 group B member 1 (Homo sapiens, UniProt P51843); assay: Luminescence-based cell-based high throughput dose response assay for inhibitors of the orphan nuclear receptor subfamily 0, group B, member 1 (DAX1; NR0B1). [Related pubchem assays (depositor defined):AID504766, AID504790]; assay type: functional
# T2 sequence (P51843 whole entry): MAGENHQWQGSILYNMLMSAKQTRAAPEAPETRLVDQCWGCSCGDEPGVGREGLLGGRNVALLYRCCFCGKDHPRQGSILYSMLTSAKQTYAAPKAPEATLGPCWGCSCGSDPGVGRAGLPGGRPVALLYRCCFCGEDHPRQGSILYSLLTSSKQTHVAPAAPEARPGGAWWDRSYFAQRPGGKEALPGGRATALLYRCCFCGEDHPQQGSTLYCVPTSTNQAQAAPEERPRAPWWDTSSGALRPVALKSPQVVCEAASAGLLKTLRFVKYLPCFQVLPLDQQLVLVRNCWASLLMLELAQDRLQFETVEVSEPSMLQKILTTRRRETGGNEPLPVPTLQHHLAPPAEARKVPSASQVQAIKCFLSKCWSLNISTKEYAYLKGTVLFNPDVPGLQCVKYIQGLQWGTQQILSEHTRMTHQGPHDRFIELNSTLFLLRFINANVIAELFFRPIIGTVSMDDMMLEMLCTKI
# HEK293 [4] = assay: cells; assay type: functional, cell-based; details: Homo sapiens
# Vero = assay: viability of Vero cells under compound – cytotoxicity control for flavivirus capping enzyme inhibitors (AID 588742); assay type: functional; details: Chlorocebus sabaeus
# [5] = microbe, parasite or virus in culture; assay type: functional; details: Mycobacterium tuberculosis
# Large T antigen = Large T antigen (Simian virus 40, UniProt P03070); assay type: functional, Betapolyomavirus macacae;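 also: Confirmatory-stage PubChem screen for compounds that inhibit SV40 T antigen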
# Large T antigen, sequence (P03070 whole entry): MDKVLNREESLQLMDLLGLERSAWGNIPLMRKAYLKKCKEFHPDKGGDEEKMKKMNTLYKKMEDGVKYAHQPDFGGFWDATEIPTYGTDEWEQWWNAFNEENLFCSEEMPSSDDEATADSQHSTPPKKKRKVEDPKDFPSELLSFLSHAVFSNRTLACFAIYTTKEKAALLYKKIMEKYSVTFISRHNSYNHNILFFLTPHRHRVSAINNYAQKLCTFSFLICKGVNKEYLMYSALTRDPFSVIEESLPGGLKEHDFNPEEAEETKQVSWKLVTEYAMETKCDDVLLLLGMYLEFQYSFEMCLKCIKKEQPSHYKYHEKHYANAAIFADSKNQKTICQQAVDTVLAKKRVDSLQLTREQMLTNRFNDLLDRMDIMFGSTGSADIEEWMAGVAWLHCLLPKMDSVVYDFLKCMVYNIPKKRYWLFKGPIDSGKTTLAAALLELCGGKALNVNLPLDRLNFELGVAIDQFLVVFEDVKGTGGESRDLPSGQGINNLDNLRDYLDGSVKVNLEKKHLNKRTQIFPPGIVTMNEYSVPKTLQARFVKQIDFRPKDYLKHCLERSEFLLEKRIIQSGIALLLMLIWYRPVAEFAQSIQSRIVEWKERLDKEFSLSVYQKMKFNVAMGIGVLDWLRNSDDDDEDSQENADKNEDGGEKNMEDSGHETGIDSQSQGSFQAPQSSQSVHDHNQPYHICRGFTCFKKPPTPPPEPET
# [6] = target: Dual specificity tyrosine-phosphorylation-regulated kinase 1A (Homo sapiens, UniProt Q13627); assay type: functional;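 also: measured against DYRK1A as one member of a broad kinome profiling panel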
# [7] = target: Dual specificity protein kinase CLK2 (Homo sapiens, UniProt P49760); assay type: functional
# [8] = target: Dual specificity protein kinase CLK4 (Homo sapiens, UniProt Q9HAZ1); assay type: functional
# [9] = blockade of melanocortin 4 receptor signaling – cell-based, plate reader, cherry pick, counter-screen for LGR2 antagonist project, dose response (AID 743444); assay type: functional;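 also: transfected HEK 293 cells stimulated with alpha-MSH peptide; potency of inhibitors of the alpha-MSH evoked signal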
# [10] = luciferase reporter signal suppression in cells – H4 neuroglioma cells, luminescence, dose response (AID 1990); assay type: functional, cell-based
# [11] = A549 cell cytotoxicity, dose response, cytotoxicity control, plate reader, cherry-pick, antagonist series (AID 743412); assay type: functional, cell-based
# HEK293 [12] = assay: EBV LMP1 TES2 canonical NF-kB signalling blockers – cell-based, HEK293, luciferase, cherry-pick, dose response (AID 588343); assay type: functional; details: Homo sapiens
# [13] = Luminescence Cell-Based Dose Response HTS to Identify Inhibitors of 5'UTR Stem-Loop Driven Prion Protein mRNA Translation in H4 Neuroglioblastoma Cells. [Related pubchem assays: 1827 (Project Summary), 1813 (Primary HTS)]; assay type: functional
# [14] = viability loss in HEK293 cells – cell-based, plate reader, cherry-picked samples, cytotoxicity control, dose response (AID 743446); assay type: functional
# [15] = alpha-synuclein stem-loop luciferase translation blockers – H4 neuroglioma cells, luminescence, confirmation (AID 1988); assay type: functional, cell-based
# [16] = blockers of bursicon-stimulated LGR2 cAMP reporter – cell-based, HEK293, CRE-luciferase reporter, cherry pick, set 2, dose response (AID 743343); assay type: functional;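 also: transfected cells were stimulated with diluted bursicon conditioned medium after compound addition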
# [17] = target: 26S proteasome non-ATPase regulatory subunit 14 (Homo sapiens, UniProt O00487); assay: inhibition of proteasome subunit RPN11 – biochemical, fluorescence polarization, uHTS hits, confirmation (AID 602368); assay type: functional
# 26S proteasome non-ATPase regulatory subunit 14, sequence (O00487 whole entry): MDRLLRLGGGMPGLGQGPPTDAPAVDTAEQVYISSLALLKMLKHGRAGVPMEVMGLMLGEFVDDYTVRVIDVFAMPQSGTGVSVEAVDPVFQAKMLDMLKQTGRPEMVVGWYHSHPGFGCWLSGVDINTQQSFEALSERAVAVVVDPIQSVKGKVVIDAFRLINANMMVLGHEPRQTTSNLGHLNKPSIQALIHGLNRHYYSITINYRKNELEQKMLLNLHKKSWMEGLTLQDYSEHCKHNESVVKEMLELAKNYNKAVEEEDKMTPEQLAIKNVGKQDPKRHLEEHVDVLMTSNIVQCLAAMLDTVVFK
# [18] = target: 72 kDa type IV collagenase (Homo sapiens, UniProt P08253); assay: Dose Response validation of uHTS RPN11 inhibitor hits using a MMP-2 Fluorescence assay.; assay type: functional
# 72 kDa type IV collagenase, sequence (P08253 whole entry): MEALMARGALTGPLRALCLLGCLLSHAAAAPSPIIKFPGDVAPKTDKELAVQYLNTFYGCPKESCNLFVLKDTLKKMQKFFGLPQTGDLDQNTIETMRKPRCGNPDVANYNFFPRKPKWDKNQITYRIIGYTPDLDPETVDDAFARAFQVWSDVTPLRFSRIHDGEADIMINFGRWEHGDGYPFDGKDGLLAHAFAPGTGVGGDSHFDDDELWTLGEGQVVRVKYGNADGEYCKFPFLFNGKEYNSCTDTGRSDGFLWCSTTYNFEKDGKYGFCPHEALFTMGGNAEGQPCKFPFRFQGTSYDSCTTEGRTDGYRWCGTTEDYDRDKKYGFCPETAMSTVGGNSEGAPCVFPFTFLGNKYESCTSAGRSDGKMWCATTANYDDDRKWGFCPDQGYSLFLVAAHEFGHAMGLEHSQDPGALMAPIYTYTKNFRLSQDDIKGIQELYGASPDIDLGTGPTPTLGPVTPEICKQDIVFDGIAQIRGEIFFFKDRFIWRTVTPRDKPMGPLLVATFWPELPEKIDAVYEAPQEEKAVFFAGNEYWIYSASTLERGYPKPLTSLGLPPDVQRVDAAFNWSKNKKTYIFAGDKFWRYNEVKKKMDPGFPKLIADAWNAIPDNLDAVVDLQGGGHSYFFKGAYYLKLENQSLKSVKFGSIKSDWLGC
# Prothrombin = Prothrombin (Bos taurus, UniProt P00735); assay: thrombin protease inhibitors – biochemical, fluorescence polarization, uHTS hits, dose response (AID 602369); assay type: functional
# [19] = target: Mitogen-activated protein kinase 9 (Homo sapiens, UniProt P45984); assay type: functional;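 also: value from a kinome panel profiling assay, MAPK9 panel entry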
# Mitogen-activated protein kinase 9, sequence (P45984 whole entry, the tested form may be a part): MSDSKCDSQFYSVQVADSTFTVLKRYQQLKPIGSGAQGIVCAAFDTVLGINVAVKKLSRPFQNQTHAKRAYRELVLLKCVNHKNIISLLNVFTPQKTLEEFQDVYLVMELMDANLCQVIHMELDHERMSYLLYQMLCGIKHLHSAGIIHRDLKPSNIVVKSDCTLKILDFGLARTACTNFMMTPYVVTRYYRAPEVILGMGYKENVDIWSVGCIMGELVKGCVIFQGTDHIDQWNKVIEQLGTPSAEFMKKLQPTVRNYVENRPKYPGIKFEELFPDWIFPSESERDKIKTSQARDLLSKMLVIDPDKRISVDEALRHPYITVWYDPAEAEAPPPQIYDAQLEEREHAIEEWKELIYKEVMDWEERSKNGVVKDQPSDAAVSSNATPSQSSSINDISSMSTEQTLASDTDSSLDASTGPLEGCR
# [20] = target: Hepatocyte nuclear factor 4-alpha (Homo sapiens, UniProt P41235); assay type: functional, cell-based;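 also: biochemical luminescence-based dose-response counterscreen measuring inhibition of HNF4 dimerization, run alongside a screen for blockers of ABHD5–perilipin-5 interaction; split luciferase complementation of HNF4 fusion proteins in cell lysate measuring dimerization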
# Hepatocyte nuclear factor 4-alpha, sequence (P41235 whole entry, the tested form may be a part): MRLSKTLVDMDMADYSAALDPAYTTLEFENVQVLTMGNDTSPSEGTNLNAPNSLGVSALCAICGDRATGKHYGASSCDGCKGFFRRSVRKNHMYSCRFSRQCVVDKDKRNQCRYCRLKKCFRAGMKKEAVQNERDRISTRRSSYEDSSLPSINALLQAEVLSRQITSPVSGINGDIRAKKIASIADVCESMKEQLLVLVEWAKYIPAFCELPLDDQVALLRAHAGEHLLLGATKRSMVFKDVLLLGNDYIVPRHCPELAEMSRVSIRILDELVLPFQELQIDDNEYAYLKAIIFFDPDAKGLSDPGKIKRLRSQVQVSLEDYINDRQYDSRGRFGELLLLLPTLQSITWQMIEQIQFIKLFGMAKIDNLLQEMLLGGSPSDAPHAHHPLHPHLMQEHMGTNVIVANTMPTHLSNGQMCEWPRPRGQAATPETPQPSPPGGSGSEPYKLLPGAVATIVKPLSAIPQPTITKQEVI
# [21] = NIH3T3 cell viability loss – ATP luminescence, mouse fibroblasts, counter-screen, dose response (AID 2010); assay type: functional, cell-based;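 also: cells exposed to compound for about 90 hours before reading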
# [22] = test system: Streptococcus sp. 'group A'; assay: Streptococcus pyogenes SK(-)GAS viability under kanamycin – luminescence, BacTiterGlo, confirmation, counter-screen for streptokinase expression inhibitor project, dose response (AID 1900); assay type: functional, organism-based
# Streptococcus = assay: GAS UMAA2166 growth inhibition – luminescence, BacTiterGlo, counter-screen for streptokinase expression inhibitor project, dose response (AID 1915); assay type: functional, organism-based;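 also: potency for reduction of bacterial viability or growth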
# cells = assay type: functional
# Streptokinase A = target: T3, Streptokinase A (Streptococcus pyogenes serotype M1, UniProt P10520); assay: viability-normalized secreted streptokinase activity reduction – plasminogen activation absorbance, OD405, dose response (AID 1914); assay type: functional, Streptococcus pyogenes M1 GAS;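 also: secreted streptokinase activity via plasminogen activation per viability signal from cell pellet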
# T3 sequence (P10520 whole entry): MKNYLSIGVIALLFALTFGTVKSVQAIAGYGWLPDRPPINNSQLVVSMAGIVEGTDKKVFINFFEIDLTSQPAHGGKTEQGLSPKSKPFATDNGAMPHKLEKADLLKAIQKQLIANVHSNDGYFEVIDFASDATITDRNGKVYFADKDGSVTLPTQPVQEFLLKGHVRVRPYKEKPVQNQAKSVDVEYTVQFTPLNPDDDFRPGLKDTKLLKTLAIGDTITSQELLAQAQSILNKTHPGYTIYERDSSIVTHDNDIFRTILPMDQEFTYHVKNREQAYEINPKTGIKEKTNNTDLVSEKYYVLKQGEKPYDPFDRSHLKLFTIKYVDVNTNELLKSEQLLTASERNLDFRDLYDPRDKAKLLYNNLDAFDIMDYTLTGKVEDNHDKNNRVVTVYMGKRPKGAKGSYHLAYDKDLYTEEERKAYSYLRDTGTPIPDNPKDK
# [23] = Trypanosoma cruzi growth suppression in host cells – NIH3T3 host cells, beta-gal luminescence, confirmation (AID 2044); assay type: functional, cell-based;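 also: intracellular parasites grown in NIH/3T3 mouse fibroblasts as host cells; luminescent beta-galactosidase reporter signal from transgenic T. cruzi replicating inside host cells; inhibitors lower the luminescence signal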
# [24] = target: Arf-GAP with SH3 domain, ANK repeat and PH domain-containing protein 1 (Homo sapiens, UniProt Q9ULH1); assay type: functional;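 also: biochemical fluorescence polarization dose–response screen measuring inhibition of ASAP1; ASAP1 GAP domain stimulating GTP hydrolysis by truncated human ARF1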
# Arf-GAP with SH3 domain, ANK repeat and PH domain-containing protein 1, sequence (Q9ULH1 whole entry, the tested form may be a part): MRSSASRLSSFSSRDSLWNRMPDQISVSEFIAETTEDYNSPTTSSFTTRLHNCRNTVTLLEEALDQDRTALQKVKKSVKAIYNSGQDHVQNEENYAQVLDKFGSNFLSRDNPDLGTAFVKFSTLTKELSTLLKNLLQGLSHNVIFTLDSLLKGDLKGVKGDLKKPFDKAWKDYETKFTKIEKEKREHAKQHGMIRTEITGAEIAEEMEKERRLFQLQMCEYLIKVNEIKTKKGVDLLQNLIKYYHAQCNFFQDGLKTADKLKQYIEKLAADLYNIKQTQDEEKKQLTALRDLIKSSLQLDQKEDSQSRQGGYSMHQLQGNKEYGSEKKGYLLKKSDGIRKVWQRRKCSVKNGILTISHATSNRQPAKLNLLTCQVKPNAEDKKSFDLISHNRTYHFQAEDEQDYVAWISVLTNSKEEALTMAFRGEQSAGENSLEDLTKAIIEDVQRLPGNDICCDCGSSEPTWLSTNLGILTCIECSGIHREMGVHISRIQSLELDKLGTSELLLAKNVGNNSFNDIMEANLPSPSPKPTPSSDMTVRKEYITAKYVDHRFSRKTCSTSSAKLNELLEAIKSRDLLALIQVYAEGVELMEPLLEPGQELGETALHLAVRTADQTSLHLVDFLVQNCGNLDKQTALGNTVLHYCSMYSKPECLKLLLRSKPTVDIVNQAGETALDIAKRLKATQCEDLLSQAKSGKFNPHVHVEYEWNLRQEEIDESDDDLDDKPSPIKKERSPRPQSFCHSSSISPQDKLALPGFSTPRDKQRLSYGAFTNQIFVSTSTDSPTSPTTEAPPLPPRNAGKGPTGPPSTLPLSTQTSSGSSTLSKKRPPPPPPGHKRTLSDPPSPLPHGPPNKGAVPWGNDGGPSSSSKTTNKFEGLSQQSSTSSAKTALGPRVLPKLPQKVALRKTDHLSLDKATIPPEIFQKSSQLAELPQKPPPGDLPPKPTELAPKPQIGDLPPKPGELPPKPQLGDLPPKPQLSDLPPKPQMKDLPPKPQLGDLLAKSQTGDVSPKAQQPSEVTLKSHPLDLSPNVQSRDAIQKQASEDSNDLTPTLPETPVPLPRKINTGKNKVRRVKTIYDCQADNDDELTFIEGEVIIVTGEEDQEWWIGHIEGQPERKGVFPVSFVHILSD
# [25] = target: Heat shock protein HSP 90-alpha (Homo sapiens, UniProt P07900); assay type: functional, organism-based
# [26] = target: T4, Polyadenylate-binding protein 1 (Homo sapiens, UniProt P11940); assay: MLLE domain peptide-binding blockers, IC50 – biochemical, fluorescence polarization, FITC-PAM2 peptide, dose response (AID 602259); assay type: functional; details: read-out: IC50_Mean
# T4 sequence (P11940 whole entry, the tested form may be a part): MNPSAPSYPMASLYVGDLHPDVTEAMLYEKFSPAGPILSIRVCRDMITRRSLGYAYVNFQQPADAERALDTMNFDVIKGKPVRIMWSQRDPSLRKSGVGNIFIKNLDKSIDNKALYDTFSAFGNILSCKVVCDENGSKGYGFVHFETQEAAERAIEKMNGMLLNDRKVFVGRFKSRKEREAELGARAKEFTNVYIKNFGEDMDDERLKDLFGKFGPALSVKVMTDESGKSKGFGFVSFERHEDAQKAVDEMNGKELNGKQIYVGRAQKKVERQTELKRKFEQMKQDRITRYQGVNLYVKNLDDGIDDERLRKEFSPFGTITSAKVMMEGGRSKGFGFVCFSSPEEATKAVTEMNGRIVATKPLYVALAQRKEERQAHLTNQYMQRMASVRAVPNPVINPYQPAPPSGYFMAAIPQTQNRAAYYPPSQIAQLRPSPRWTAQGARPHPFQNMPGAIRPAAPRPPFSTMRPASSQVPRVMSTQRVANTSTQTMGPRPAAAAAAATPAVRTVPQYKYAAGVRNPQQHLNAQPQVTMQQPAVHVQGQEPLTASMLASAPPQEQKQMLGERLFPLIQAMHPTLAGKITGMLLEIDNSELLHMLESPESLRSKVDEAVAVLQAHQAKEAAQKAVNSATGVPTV
# [27] = target: T4, Polyadenylate-binding protein 1; assay: MLLE binding blockers, Cy5 peptide tracer – biochemical, fluorescence polarization, Cy5-PAM2 peptide, secondary, miRNA deadenylation inhibitor project, dose response (AID 602260); assay type: functional; details: read-out: IC50_Mean
# [28] = target: T5, Ubiquitin-conjugating enzyme E2 N (Homo sapiens, UniProt P61088); assay type: functional;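 also: Dose-response confirmation in a TR-FRET assay detecting UBC13-driven polyubiquitin chain formation, inhibition measured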
# T5 sequence (P61088 whole entry): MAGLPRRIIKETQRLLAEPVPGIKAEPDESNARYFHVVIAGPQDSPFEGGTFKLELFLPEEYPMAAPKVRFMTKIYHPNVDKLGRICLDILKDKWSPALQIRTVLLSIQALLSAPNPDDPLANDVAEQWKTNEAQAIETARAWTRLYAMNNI
# [29] = target: T6, Endoribonuclease toxin MazF (Escherichia coli K-12, UniProt P0AE70); assay: substrate-only fluorescence increase artefacts – biochemical, single-stranded RNase substrate, counter-screen for MazEF activator project, dose response (AID 588502); assay type: functional
# T6 sequence (P0AE70 whole entry): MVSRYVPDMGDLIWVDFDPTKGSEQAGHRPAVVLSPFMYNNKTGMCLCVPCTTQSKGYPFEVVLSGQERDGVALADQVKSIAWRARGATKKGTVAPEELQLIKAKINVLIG
# [30] = target: T6, Endoribonuclease toxin MazF; assay: activation of MazEF endoribonuclease cleavage – biochemical, fluorescence, single-stranded RNA substrate, uHTS hits, dose response (AID 588481); assay type: functional
compound,measurement,setting,value
COc1cc(Cl)c(OC)cc1N,AC50,[1],56.2 µM (inconclusive)
COC(=O)c1sc(N)c(C(=O)OC)c1CSc1nnc(-c2ccccc2Cl)n1C,AC50,[2],1.07 µM (active)
Cc1cccc(CN2CCN(C(S)=Nc3ccccc3)CC2)c1,IC50,[3],> 67.6 µM (inactive)
same,IC50,HEK293 [4],> 67.6 µM (inactive)
O=S(=O)(NCC1NCCc2ccccc21)c1ccccc1 (centres undefined),IC50,[3],> 67.6 µM (inactive)
same,IC50,HEK293 [4],> 67.6 µM (inactive)
O=C(COc1ccc2ccc(=O)oc2c1)N1CCN(c2ccc(F)cc2)CC1,AC50,[2],1 µM (active)
Oc1ccc2cc(SSc3ccc4cc(O)ccc4c3)ccc2c1,AC50,[1],56.2 µM (inconclusive)
c1ccc(-n2cnc3cc(NCc4cccs4)ccc32)cc1,CC50,Vero,> 40 µM (active)
same,CC50,[5],> 40 µM (active)
O=c1c(-c2ccc([N+](=O)[O-])cc2)coc2c(O)c(O)ccc12,CC50,Vero,21.4 µM (active)
same,IC50,Large T antigen,13.8 µM (active)
O=c1[nH]c2ccc(Br)cc2n1-c1cc(Cl)c(O)cc1O,Ki,[6],5.01 µM (active)
same,Ki,[7],6.31 µM (active)
same,Ki,[8],3.16 µM (active)
Cc1ccnc(NC(=O)CCC(=O)c2cccs2)c1,AC50,[9],2.17 µM (active)
same,EC50,[10],4.73 µM (inconclusive)
same,AC50,[11],> 52 µM (inactive)
same,AC50,HEK293 [12],3 µM (active)
same,EC50,[13],2.97 µM (active)
same,AC50,[14],34.9 µM (active)
same,EC50,[15],2.36 µM (active)
same,AC50,[16],2.38 µM (active)
Cc1ccc(C)c(OCCn2cc(/C=C(/C#N)C(=O)NCC3CCCO3)c3ccccc32)c1 (centres undefined),IC50,[17],27.5 µM (active)
same,IC50,[18],> 100 µM (inactive)
same,IC50,Prothrombin,45.4 µM (active)
CC(C)(C)c1cc(NC(=O)c2cc3ccccc3s2)n(-c2ccc(OCC(=O)O)cc2)n1,Ki,[19],3.98 µM (active)
Cc1cc(N2CCCC2)c(F)cc1/C=C\[N+](=O)[O-],IC50,[17],14.7 µM (active)
same,IC50,[18],> 100 µM (inactive)
same,IC50,Prothrombin,20 µM (active)
COc1ccc(NC(=O)C(c2cccc3ccccc23)n2c(=O)c(-c3ccco3)nc3ccccc32)cc1 (centres undefined),IC50,[20],25.5 µM (inactive)
Cc1ccc(N/N=C2\CS(=O)(=O)N(C)c3ccsc32)cc1,EC50,[21],> 60 µM (not active)
same,EC50,[22],1.25 µM (active)
same,EC50,Streptococcus,11.3 µM (active)
same,IC50,[3],> 67.5 µM (inactive)
same,IC50,cells,21.2 µM (active)
same,EC50,Streptokinase A,4.04 µM (active)
same,IC50,HEK293 [4],> 67.5 µM (inactive)
same,EC50,[23],2.21 µM (active)
COc1ccc(NC(=O)C(c2ccccc2)n2c(=O)c(-c3ccco3)nc3ccccc32)cc1 (centres undefined),IC50,[20],12.8 µM (inactive)
COC(=O)c1ccc(NC(=O)c2cn(-c3ccccc3)nc2-c2ccncc2)cc1,EC50,[21],> 60 µM (not active)
same,IC50,[24],17.2 µM (inactive)
same,EC50,[23],1.9 µM (active)
same,AC50,[25],4.18 µM (active)
CCOc1ccc(NC(=S)N=Nc2c(O)[nH]c3ccccc23)cc1,EC50,[22],0.465 µM (active)
same,EC50,Streptococcus,5.53 µM (active)
same,IC50,[26],> 66 µM (inactive)
same,AC50,HEK293 [12],2.7 µM (active)
same,EC50,Streptokinase A,> 150 µM (not active)
same,IC50,[27],> 66 µM (inactive)
same,IC50,[28],> 20 µM (inactive)
Cc1ccc(NC(=O)c2ccc(NCc3ccco3)c([N+](=O)[O-])c2)cc1Cl,EC50,[29],> 99 µM (inactive)
same,EC50,[30],> 99 µM (inactive)
same,IC50,[24],33.6 µM (inactive)
